Assays:
Assay in all cases: Prophylactic effect on ischemic breakdown of cytoskeletal proteins, 5-minute brain ischemia-reperfusion model
Type in all cases: in vivo, gerbil
MAP-2 = tested on: MAP-2
Procedure: (§1) A gerbil was immobilized in supine position and median section was performed in the cervical region under local anesthesia. Then, the bilateral common carotid arteries were stripped off carefully not to injure the vagus and sympathetic nerves running in parallel, . Then, each common carotid artery was obstructed with a small clip and after an interval of 5, 10 or 15 minutes, the clips were removed. The animal was decapitated immediately, 4 days or 1 week after the removal of the clips, and the brain was isolated. Untreated animals served as controls and animals undergoing sham operation (involving the stripping procedure only) were also investigated. The isolated brain was sectioned under ice-cooling into the frontal cortex (upper 2/3, approximately corresponding to the 1st to the 5th layer, ∼80 mg), striatum (∼20 mg) and hippocampus (∼50 mg) and each portion was homogenized in 4 times volume of (v/w) of 0.01 M phosphate buffer (pH 7.2). Each homogenate was centrifuged at 100,000 G for 30 minutes to obtain a supernatant. Equal parts of these supernatants were subjected to SDS-polyacrylamide gel (5%) electrophoresis and the proteins, namely MAP-2 (MW: 250-260K) calspectin (MW: 230-240K) and clathrin (MW: 180K), were quantified by measuring the absorbances at 560 nm with a densitometer (CS-930, Shimazu), and the proportion of each protein to the total water-soluble protein (exactly, the integral sum of the absorbance areas) was calculated. In addition, the relative percentage to the value of the untreated control group was also calculated.
(§2) Two series of experiments were carried out. […] One hour after the reperfusion, the animal was killed by decapitation and the brain was removed. […] One hour after the final administration (day 5), the animal was decapitated and the brain was isolated. The isolated brain was subjected to fractionation and electrophoresis as described above.

clathrin = conditions: for Total score, Clathrin: number of brain sites with significant effect
Procedure: as §1, §2

calspectin = conditions: number of brain sites with significant effect
Procedure: as §1, §2

[1] = Left: dosed 1 hour before ischemia, killed 1 hour after ischemia, number of brain sites with significant effect
[2] = Right: dosed 1 hour before ischemia and for 4 subsequent days, number of brain sites with significant effect
[3] = sum of left and right (in brackets)
[4] = Left: dosed 1 hour before ischemia, killed 1 hour after ischemia
[5] = Right: dosed 1 hour before ischemia and for 4 subsequent days

COC(=O)C1=C(C)NC(C)=C(C(=O)OCCN(C)Cc2ccccc2)C1c1cccc([N+](=O)[O-])c1 (centres unmarked) [Nicardipine, nicardipine]
Total score, MAP-2 (MAP-2; [1]): 2
Total score, MAP-2 (MAP-2; [2]): 2
Total score, MAP-2 (MAP-2; [3]): 4
Total score, Clathrin (clathrin; [4]): 0/0 (0)
Total score, Clathrin (clathrin; [5]): 0/0 (0)
Total score, Calspectin (calspectin; [4]): 0/0 (0)
Total score, Calspectin (calspectin; [5]): 0/0 (0)

COCCOC(=O)C1=C(C)NC(C)=C(C(=O)OC(C)C)C1c1cccc([N+](=O)[O-])c1 (centres unmarked) [Nimodipine, nimodipine]
Total score, MAP-2 (MAP-2; [1]): 2
Total score, MAP-2 (MAP-2; [2]): 1
Total score, MAP-2 (MAP-2; [3]): 3
Clathrin protein concentration (clathrin; Cortex, 0.01 mg/kg s.c. 1 hour before ischemia, 1 hour after ischemia): 81.9± 5.5 % of normal value
Clathrin protein concentration (clathrin; Cortex, 0.1 mg/kg s.c. 1 hour before ischemia and once a day for 4 days, 4 days after ischemia): 52.3± 9.5 % of normal value
Clathrin protein concentration (clathrin; Cortex, 0.1 mg/kg s.c. 1 hour before ischemia, 1 hour after ischemia): 81.8± 6.3 % of normal value
Clathrin protein concentration (clathrin; Cortex, 1 mg/kg s.c. 1 hour before ischemia and once a day for 4 days, 4 days after ischemia): 55.8± 8.5 % of normal value
Clathrin protein concentration (clathrin; Cortex, 1 mg/kg s.c. 1 hour before ischemia, 1 hour after ischemia): 85.9± 4.0 % of normal value
Clathrin protein concentration (clathrin; Cortex, 10 mg/kg s.c. 1 hour before ischemia and once a day for 4 days, 4 days after ischemia): 54.6± 5.7 % of normal value
Clathrin protein concentration (clathrin; Hippocampus, 0.01 mg/kg s.c. 1 hour before ischemia, 1 hour after ischemia): 52.1± 3.3 % of normal value
Clathrin protein concentration (clathrin; Hippocampus, 0.1 mg/kg s.c. 1 hour before ischemia and once a day for 4 days, 4 days after ischemia): 46.6± 4.2 % of normal value
Clathrin protein concentration (clathrin; Hippocampus, 0.1 mg/kg s.c. 1 hour before ischemia, 1 hour after ischemia): 56.7± 7.1 % of normal value
Clathrin protein concentration (clathrin; Hippocampus, 1 mg/kg s.c. 1 hour before ischemia and once a day for 4 days, 4 days after ischemia): 51.2±10.7 % of normal value
Clathrin protein concentration (clathrin; Hippocampus, 1 mg/kg s.c. 1 hour before ischemia, 1 hour after ischemia): 61.6±12.2 % of normal value
Clathrin protein concentration (clathrin; Hippocampus, 10 mg/kg s.c. 1 hour before ischemia and once a day for 4 days, 4 days after ischemia): 64.6±15.0 % of normal value
Total score, Clathrin (clathrin; [4]): 0/0 (0)
Total score, Clathrin (clathrin; [5]): 0/0 (0)
Clathrin protein concentration (clathrin; Striatum, 0.01 mg/kg s.c. 1 hour before ischemia, 1 hour after ischemia): 70.5±21.1 % of normal value
Clathrin protein concentration (clathrin; Striatum, 0.1 mg/kg s.c. 1 hour before ischemia and once a day for 4 days, 4 days after ischemia): 53.6±11.3 % of normal value
Clathrin protein concentration (clathrin; Striatum, 0.1 mg/kg s.c. 1 hour before ischemia, 1 hour after ischemia): 68.7±11.9 % of normal value
Clathrin protein concentration (clathrin; Striatum, 1 mg/kg s.c. 1 hour before ischemia and once a day for 4 days, 4 days after ischemia): 57.9± 5.3 % of normal value
Clathrin protein concentration (clathrin; Striatum, 1 mg/kg s.c. 1 hour before ischemia, 1 hour after ischemia): 69.8±12.7 % of normal value
Clathrin protein concentration (clathrin; Striatum, 10 mg/kg s.c. 1 hour before ischemia and once a day for 4 days, 4 days after ischemia): 62.0±10.2 % of normal value
Total score, Calspectin (calspectin; [4]): 0/0 (0)
Total score, Calspectin (calspectin; [5]): 0/0 (0)

Reference: patent EP0322747B1, “A brain neuron protecting agent containing a dihydropyridine compound” (priority 1987, dated 1989)
